The source of these data is US20220289794A1, “SYNTHETIC ANTIMICROBIAL PEPTIDES” (priority 2019, published 2022).

Values after ≈ are worked out from the molar mass of the structure shown. Like-named read-outs stand apart in the source and are kept apart here. Residues, ends and D or L forms follow the SMILES beside them. Where only a bound is given, the exact number is not on record here.

The subject of test [1] is Klebsiella pneumoniae (KPC, ATCC BAA-1705). The experiment in a line: microbe, parasite or virus in culture. Conditions: ATCCBAA1705, 24 h.
Test [2] concerns Escherichia coli (E. Coli, ATCC 25922). The experiment in a line: microbe, parasite or virus in culture. To be noted: ATCC25922, 24 h.
The subject of test [3] is Pseudomonas aeruginosa (PSA, ATCC 27883). The experiment in a line: microbe, parasite or virus in culture. To be noted: ATCC27883, 24 h.
The test system of test [4] is Methicillin-resistant Staphylococcus aureus MRSA (ATCC BAA-1556). The experiment in a line: microbe, parasite or virus in culture. To be noted: ATCCBAA1556|MRSA, 24 h.
The test system of test [5] is Escherichia coli (E. Coli, ATCC 25922). Conditions: Table 25; Escherichia coli (ATCC 25922); antibiotic alone.
Another test has as its system MRSA (ATCC BAA-1556). To be noted: MRSA (ATCC BAA-1556), antibiotic alone.
Test [6] concerns Klebsiella pneumoniae (KPC, ATCC BAA-1705). Conditions: Table 26; Klebsiella pneumoniae (ATCC BAA-1705); antibiotic alone.
Test [7] relates to Pseudomonas aeruginosa (PSA, ATCC 27883). The experiment in a line: Synergy checkerboard assay (FIC index). To be noted: Pseudomonas aeruginosa (ATCC 27883), antibiotic alone. The class given is cell-based.
Test [8] relates to Enterococcus faecium ATCC 27270. Conditions: ATCC 27270.
The mark [9] stands for this setting: read-out: Klebsiella pneumoniae (ATCC BAA-1705) MIC, Table 29, [R6W4] (IFX-318), antibiotics alone and PHY-MIX (1:1 w/w).
Where [10] appears, read: read-out: Klebsiella pneumoniae (ATCC BAA-1705) MIC, Table 30, [R5W4K] (IFX-315), antibiotics alone and PHY-MIX (1:1 w/w).
Setting [11] is: read-out: Klebsiella pneumoniae (ATCC BAA-1705) MIC, Table 31, [R5W4] (IFX-301), antibiotics alone and PHY-MIX (1:1 w/w).
Setting [12] is: read-out: Escherichia coli (ATCC 25922) MIC, Table 30, [R5W4K] (IFX-315), antibiotics alone and PHY-MIX (1:1 w/w).
Where [13] appears, read: read-out: Escherichia coli (ATCC 25922) MIC, Table 31, [R5W4] (IFX-301), antibiotics alone and PHY-MIX (1:1 w/w).
[14] abbreviates: read-out: Pseudomonas aeruginosa (ATCC 27883) MIC, Table 29, [R6W4] (IFX-318), antibiotics alone and PHY-MIX (1:1 w/w).
Setting [15] is: read-out: Pseudomonas aeruginosa (ATCC 27883) MIC, Table 30, [R5W4K] (IFX-315), antibiotics alone and PHY-MIX (1:1 w/w).
Where [16] appears, read: read-out: MRSA (ATCC BAA-1556) MIC, Table 31, [R5W4] (IFX-301), antibiotics alone and PHY-MIX (1:1 w/w).

Consider `Cc1ncc([N+](=O)[O-])n1CCO` [Metronidazole], for which the MIC in test [1] (read-out: Klebsiella pneumoniae (ATCC BAA-1705) MIC, Table 28, IFX-031, antibiotics alone and PHY-MIX (1:1 w/w)) is above 32 µg/mL; in [1] (setting [9]), above 32 µg/mL; in test [1] (setting [10]), above 32 µg/mL; in test [1] (setting [11]), above 32 µg/mL; in test [2] (read-out: Escherichia coli (ATCC 25922) MIC, Table 28, IFX-031, antibiotics alone and PHY-MIX (1:1 w/w)), above 32 µg/mL; in test [2] (read-out: Escherichia coli (ATCC 25922) MIC, Table 29, [R6W4] (IFX-318), antibiotics alone and PHY-MIX (1:1 w/w)), above 32 µg/mL. In addition, the MIC is above 32 µg/mL in test [2] (setting [12]); above 32 µg/mL in test [2] (setting [13]); above 32 µg/mL in [3] (setting [14]); above 32 µg/mL in test [3] (setting [15]); above 32 µg/mL in test [4] (read-out: MRSA (ATCC BAA-1556) MIC, Table 28, IFX-031, antibiotics alone and PHY-MIX (1:1 w/w)); above 32 µg/mL in [4] (setting [16]).

Regarding `NC[C@H]1O[C@H](O[C@H]2[C@H](O)[C@@H](O[C@H]3O[C@H](CO)[C@@H](O)[C@H](N)[C@H]3O)[C@H](N)C[C@@H]2N)[C@H](N)C[C@@H]1O` [Tobramycin], the MIC in [1] (setting [9]) was 16 µg/mL (≈ 34.2 µM); in test [1] (setting [10]), 16 µg/mL (≈ 34.2 µM); in test [1] (setting [11]), 16 µg/mL (≈ 34.2 µM); in [2] (setting [12]), 8 µg/mL (≈ 17.1 µM); in [2] (setting [13]), 8 µg/mL (≈ 17.1 µM); in test [3] (setting [14]), 0.5 µg/mL (≈ 1.07 µM). For the same molecule, the MIC came out at 0.5 µg/mL (≈ 1.07 µM) in [3] (setting [15]); 0.5 µg/mL (≈ 1.07 µM) in [3] (read-out: Pseudomonas aeruginosa (ATCC 27883) MIC, Table 31, [R5W4] (IFX-301), antibiotics alone and PHY-MIX (1:1 w/w)); 0.5 µg/mL (≈ 1.07 µM) in test [4] (read-out: MRSA (ATCC BAA-1556) MIC, Table 30, [R5W4K] (IFX-315), antibiotics alone and PHY-MIX (1:1 w/w)); 0.5 µg/mL (≈ 1.07 µM) in test [4] (setting [16]). Moreover, the MIC of antibiotic is 8 µg/mL in test [5], 0.5 µg/mL in the test with MRSA (ATCC BAA-1556), 0.5 µg/mL in the test on MRSA (ATCC BAA-1556) (Table 25) and 0.5 µg/mL in test [7] (Table 26). The MIC of antibiotics in test [6] was determined as 16 µg/mL. Further, in [7] (Table 27), the antibiotic MIC is 0.5 µg/mL.

Regarding `N=C(N)NCCC[C@@H]1NC(=O)[C@H](CCCNC(=N)N)NC(=O)[C@H](Cc2c[nH]c3ccccc23)NC(=O)[C@H](Cc2c[nH]c3ccccc23)NC(=O)[C@H](Cc2c[nH]c3ccccc23)NC(=O)[C@H](CCCNC(=N)N)NC1=O` [[R3W3] (IFX-302)] (cyclo(WWWRRR)), the “MIC Klebsiella pneumoniae (ATCC BAA-1705)” value (shortened to “MIC Klebsiella pneumoniae”) against KPC came to 64 µg/mL (≈ 62.3 µM). The “MIC Escherichia coli (ATCC 25922)” value with E. coli amounted to 32 µg/mL (≈ 31.2 µM). Moreover, the “MIC Pseudomonas aeruginosa (ATCC 27883)” value against PSA was found to be 128 µg/mL (≈ 125 µM). For the same molecule, the “MIC MRSA ATCC BAA-1556” value against MRSA is 16 µg/mL (≈ 15.6 µM).

With `N=C(N)NCCC[C@@H]1NC(=O)[C@H](CCCNC(=N)N)NC(=O)[C@H](CCCNC(=N)N)NC(=O)[C@H](Cc2c[nH]c3ccccc23)NC(=O)[C@H](Cc2c[nH]c3ccccc23)NC(=O)[C@H](Cc2c[nH]c3ccccc23)NC(=O)[C@H](Cc2c[nH]c3ccccc23)NC(=O)[C@H](CCCNC(=N)N)NC1=O` [[R4W4] (IFX-326)] (cyclo(RRRRWWWW)), in the test on KPC, the “MIC Klebsiella pneumoniae” value worked out at 32 µg/mL (≈ 23.4 µM). Moreover, in the test with E. coli, the “MIC Escherichia coli (ATCC 25922)” value is 16 µg/mL (≈ 11.7 µM). Further, the “MIC Pseudomonas aeruginosa (ATCC 27883)” value in the test on PSA amounted to 64 µg/mL (≈ 46.7 µM). Also, in the test with MRSA, the “MIC MRSA ATCC BAA-1556” value stood at 4 µg/mL (≈ 2.92 µM).

As to `N=C(N)NCCC[C@@H]1NC(=O)[C@H](CCCNC(=N)N)NC(=O)[C@H](CCCNC(=N)N)NC(=O)[C@H](Cc2c[nH]c3ccccc23)NC(=O)[C@H](Cc2c[nH]c3ccccc23)NC(=O)[C@H](Cc2c[nH]c3ccccc23)NC(=O)[C@H](Cc2c[nH]c3ccccc23)NC(=O)[C@H](CCCNC(=N)N)NC(=O)[C@H](CCCNC(=N)N)NC1=O` [[R5W4] (IFX-301)], the “MIC Klebsiella pneumoniae” value against KPC stood at 32 µg/mL (≈ 21 µM). The molecule further showed an MIC in test [8] of 8 µg/mL (≈ 5.24 µM). In the test with E. coli, the “MIC Escherichia coli (ATCC 25922)” value was found to be 16 µg/mL (≈ 10.5 µM). Also, the “MIC Pseudomonas aeruginosa (ATCC 27883)” value against PSA is 32 µg/mL (≈ 21 µM). Further, in the test on MRSA, the MIC amounted to 4 µg/mL (≈ 2.62 µM) and the “MIC MRSA ATCC BAA-1556” value was found to be 4 µg/mL (≈ 2.62 µM).

On to `N=C(N)NCCC[C@@H]1NC(=O)[C@H](CCCNC(=N)N)NC(=O)[C@H](CCCNC(=N)N)NC(=O)[C@H](Cc2c[nH]c3ccccc23)NC(=O)[C@H](Cc2c[nH]c3ccccc23)NC(=O)[C@H](Cc2c[nH]c3ccccc23)NC(=O)[C@H](Cc2c[nH]c3ccccc23)NC(=O)[C@H](Cc2c[nH]c3ccccc23)NC(=O)[C@H](CCCNC(=N)N)NC(=O)[C@H](CCCNC(=N)N)NC1=O` [[R5W5] (IFX-314)] (cyclo(RRRRRWWWWW)), for which, in the test on KPC, the “MIC Klebsiella pneumoniae” value is 32 µg/mL (≈ 18.7 µM). For the same molecule, the “MIC Escherichia coli (ATCC 25922)” value in the test with E. coli was 16 µg/mL (≈ 9.35 µM). For the same molecule, the “MIC Pseudomonas aeruginosa (ATCC 27883)” value with PSA stood at 32 µg/mL (≈ 18.7 µM). The “MIC MRSA ATCC BAA-1556” value in the test on MRSA was 4 µg/mL (≈ 2.34 µM).

In the case of `N=C(N)NCCC[C@@H]1NC(=O)[C@H](CCCNC(=N)N)NC(=O)[C@H](CCCNC(=N)N)NC(=O)[C@H](CCCNC(=N)N)NC(=O)[C@H](Cc2c[nH]c3ccccc23)NC(=O)[C@H](Cc2c[nH]c3ccccc23)NC(=O)[C@H](Cc2c[nH]c3ccccc23)NC(=O)[C@H](Cc2c[nH]c3ccccc23)NC(=O)[C@H](CCCNC(=N)N)NC(=O)[C@H](CCCNC(=N)N)NC1=O` [[R6W4] (IFX-318)] (cyclo(RRRRRRWWWW)), the “MIC Klebsiella pneumoniae” value against KPC worked out at 64 µg/mL (≈ 38.1 µM). Further, the “MIC Escherichia coli (ATCC 25922)” value against E. coli worked out at 32 µg/mL (≈ 19 µM). Also, the “MIC Pseudomonas aeruginosa (ATCC 27883)” value against PSA was 16 µg/mL (≈ 9.51 µM). Moreover, in the test on MRSA, the MIC came to 8 µg/mL (≈ 4.76 µM) and the “MIC MRSA ATCC BAA-1556” value was found to be 4 µg/mL (≈ 2.38 µM).

Take `N=C(N)NCCC[C@@H]1NC(=O)[C@H](CCCNC(=N)N)NC(=O)[C@H](CCCNC(=N)N)NC(=O)[C@H](CCCNC(=N)N)NC(=O)[C@H](Cc2c[nH]c3ccccc23)NC(=O)[C@H](Cc2c[nH]c3ccccc23)NC(=O)[C@H](Cc2c[nH]c3ccccc23)NC(=O)[C@H](Cc2c[nH]c3ccccc23)NC(=O)[C@H](CCCNC(=N)N)NC(=O)[C@H](CCCNC(=N)N)NC(=O)[C@H](CCCNC(=N)N)NC1=O` [[R7W4] (IFX-322)] (cyclo(RRRRRRRWWWW)): in the test with KPC, the “MIC Klebsiella pneumoniae” value was found to be 64 µg/mL (≈ 34.8 µM). In addition, the “MIC Escherichia coli (ATCC 25922)” value in the test with E. coli stood at 32 µg/mL (≈ 17.4 µM). Further, the “MIC Pseudomonas aeruginosa (ATCC 27883)” value in the test on PSA turned out to be 32 µg/mL (≈ 17.4 µM). Besides, the “MIC MRSA ATCC BAA-1556” value in the test with MRSA is 16 µg/mL (≈ 8.7 µM).

In the case of “H-RRRRRWWWWK-OH [Linear R5W4K (SEQ ID NO. 36)]”, in the test with KPC, the “MIC Klebsiella pneumoniae” value is 64 µg/mL. For the same molecule, the “MIC Escherichia coli (ATCC 25922)” value with E. coli was 32 µg/mL. For the same molecule, the “MIC Pseudomonas aeruginosa (ATCC 27883)” value in the test with PSA was 32 µg/mL. The “MIC MRSA ATCC BAA-1556” value with MRSA is 8 µg/mL.
